Assay results as given in patent publication US11083725B2 (priority 2014, dated 2021).
pIC50: −log10 of the molar value. “Also recorded” adds a separate entry of the source. Where two headings read alike, the source gives them in different places.

Key:
NHBE cells = assay: cells; format: cell-based, human
CA09 [1] = assay: microbe, parasite or virus in culture; format: cell-based, influenza virus H1N1 strain A/CA/04/2009; set-up: TCID50 (per mL): unit not given here; conditions: for log reduction at 10 pM / log reduction at 0.0001 µM / log reduction at 0.001 µM / log reduction at 0.01 µM / log reduction at 0.1 µM / log reduction at 1 µM / log reduction at 10 µM / log reduction at 100 µM: NHBE, read-out: TCID50 (per mL)
CA09 [2] = assay: High-throughput modified TCID50 viral titer of drug-screen supernatant on MDCK cells (area under the curve); format: cell-based, influenza virus H1N1 strain A/CA/04/2009; conditions: supernatant of CA09-infected NHBE cells titrated on MDCK cells
CA09 [3] = assay: In vivo drug tests in CA09-infected mice: weight loss, survival, lung viral titer; set-up: species or system C57/B6 mice; conditions: mice infected intranasally with CA09; for weight loss: daily drug for 7 days from 2 days before infection (NVP-BEZ235 25 mg/kg oral gavage; clotrimazole 120 mg/kg ip; α-mangostin 8 mg/kg ip); for survival: daily drug for 7 days from 2 days before infection, monitored 15 days
[4] = Therapeutic Drug Treatment, Drug Dose 10 pM, […]
[5] = Therapeutic Drug Treatment, Drug Dose 100 pM, […]
[6] = Therapeutic Drug Treatment, Drug Dose 1 nM, […]
[7] = Therapeutic Drug Treatment, Drug Dose 10 nM, […]
[8] = Therapeutic Drug Treatment, Drug Dose 100 nM, […]
[9] = Therapeutic Drug Treatment, Drug Dose 1 μM, […]
[10] = Therapeutic Drug Treatment, Drug Dose 10 μM, […]
[11] = Therapeutic Drug Treatment, Drug Dose 100 μM, […]
[12] = Homo sapiens, NHBE, read-out: IC50, Prophylactic Treatment, Viral Infected
[13] = Homo sapiens, NHBE, 72 h, read-out: IC50, Therapeutic Treatment, Control
[14] = […], therapeutic schedule, dose response 4 nM to 10 μM, […], read-out: IC50, Therapeutic Treatment, Control
[15] = Homo sapiens, NHBE, 72 h, read-out: IC50, Prophylactic Treatment, Control
[16] = […], dose response 4 nM to 10 μM, […], read-out: IC50, Prophylactic Treatment, Viral Infected

Row | Molecule | Cell Death Prophylactic (NHBE cells) | log reduction at 10 pM (CA09 [1]) | log reduction at 0.0001 µM (CA09 [1]) | log reduction at 0.001 µM (CA09 [1]) | log reduction at 0.01 µM (CA09 [1]) | log reduction at 0.1 µM (CA09 [1]) | log reduction at 1 µM (CA09 [1]) | log reduction at 10 µM (CA09 [1]) | log reduction at 100 µM (CA09 [1]) | Cell Death Therapeutic (NHBE cells) | other results
1 | CC(C)CCN1c2nc(Nc3cc(F)c(O)c(F)c3)ncc2N(C)C(=O)C1C (stereo not drawn) [BI-D1870] | C > V | 0.28 | 1.18 | 0.78 | 0.2 | 0.99 | 0.84 | 0.6 | 0.65 | – | Viral Titer Prophylactic (CA09 [1]): Reduced
2 | [O]=[V]1(=[O])(=[O])(=[O])[n+]2cccc3ccc4ccc[n+]1c4c32 [BP/(PHEN)] | V > C | – | – | – | – | – | – | – | – | – | TCID50 (per mL) (CA09 [1]; [4]): −0.50; TCID50 (per mL) (CA09 [1]; [5]): −0.54; TCID50 (per mL) (CA09 [1]; [6]): −0.44; TCID50 (per mL) (CA09 [1]; [7]): −0.74; TCID50 (per mL) (CA09 [1]; [8]): −0.13; TCID50 (per mL) (CA09 [1]; [9]): −0.32; TCID50 (per mL) (CA09 [1]; [10]): −0.10; TCID50 (per mL) (CA09 [1]; [11]): −0.18
3 | O=C(Nc1cccc(Nc2ncc(Br)c(NCCc3cnc[nH]3)n2)c1)N1CCCC1 [BX-912] | – | – | – | – | – | – | – | – | – | – | viral titers in the high-throughput screening (CA09 [2]): reduced; Viral Titer Therapeutic (CA09 [1]; follow up validation titer, therapeutic treatment): Reduced
4 | C=C(C)[C@@H]1CC[C@]2(C(=O)O)CC[C@]3(C)[C@H](CC[C@@H]4[C@@]5(C)CC[C@H](O)C(C)(C)[C@@H]5CC[C@]43C)[C@@H]12 [Betulinic Acid] | – | 0.37 | 0.63 | 0.51 | 0.55 | 0.31 | 0.96 | 0.61 | 0.59 | – | pIC50 (NHBE cells; [12]): 5.70
5 | Clc1ccccc1C(c1ccccc1)(c1ccccc1)n1ccnc1 [Clotrimazole] | C > V | 0.71 | 0.85 | 0.84 | 0.7 | 0.48 | 0.95 | 0.9 | 1.07 | – | NHBE cell survival / cell death after infection (NHBE cells): differentially affected; also recorded: differential effects; Viral Titer Prophylactic (CA09 [1]): Reduced; viral titers in NHBE cells (validated drug hits) (CA09 [1]): consistently reduced; also recorded: consistent reduction; weight loss (CA09 [3]): little effect; survival (CA09 [3]): little effect
6 | CCc1c(-c2ccccc2)c(-c2ccccc2)nn1-c1ccccc1-c1cccc(OCC(=O)O)c1 [FABP4 Inhibitor] | V > C | – | – | – | – | – | – | – | – | – | pIC50 (NHBE cells; [13]): 5.40; Viral Titer Prophylactic (CA09 [1]): Reduced
7 | O=C1Nc2ccc3ncsc3c2/C1=C/c1cnc[nH]1 [IMIDAZOLO-OXINDOLE PKR INHIBITOR C16] | – | – | – | – | – | – | – | – | – | – | pIC50 (NHBE cells; [14]): 7.15
8 | O=C1Nc2ccc3ncsc3c2/C1=C/c1cnc[nH]1 [Imidazolo-oxindole C 16] | – | – | – | – | – | – | – | – | – | V > C | viral titers in the high-throughput screening (CA09 [2]): reduced
9 | NC(=O)N1CCC(CC(=O)N2CCC([C@H]3c4ncc(Br)cc4CCc4cc(Cl)cc(Br)c43)CC2)CC1 [Lonafarnib] | C > V | 0.04 | 0.15 | 0.56 | -0.06 | 0.3 | 1.16 | 0.28 | 1.25 | – | pIC50 (NHBE cells; [15]): 5.72; pIC50 (NHBE cells; [12]): 5.89
10 | O=C(O)Cn1nnc(-c2cc(N3CCC(Oc4cc(F)ccc4Br)CC3)no2)n1 [MK-8245] | – | – | – | – | – | – | – | – | – | – | pIC50 (NHBE cells; Homo sapiens, NHBE, 72 h, […], prophylactic schedule, dose response 4 nM to 10 μM, […], read-out: IC50, Prophylactic Treatment, Control): 5.30
11 | CO/C(=C\C(N)=O)[C@H](C)[C@H](/C=C/c1csc(-c2csc([C@@H](C)/C=C/C=C/C(C)C)n2)n1)OC [Myxothiazol] | C = V | – | – | – | – | – | – | – | – | C > V | –
12 | Nc1cc(C(F)(F)F)c(-c2cc(N3CCOCC3)nc(N3CCOCC3)n2)cn1 [NVP-BKM120] | C = V | 0 | 0.4 | 0.76 | 0 | 0.29 | -0.08 | 0.07 | -0.37 | C = V | NHBE cell survival / cell death after infection (NHBE cells): no effect
13 | CC[C@@H]1/C=C/C=C/C[C@H](C)[C@@H](O)[C@](C)(O)C(=O)[C@H](C)[C@@H](O)[C@H](C)C(=O)[C@H](C)[C@@H](O)[C@H](C)/C=C/C(=O)O[C@H]2[C@@H](C)[C@@H](CC1)O[C@@]1(CC[C@@H](C)C(CC(C)O)O1)[C@@H]2C (stereo partly drawn) [Oligomycin A] | C > V | 0.92 | 0.23 | 0.51 | 0.6 | 0.38 | 0.77 | 0.66 | 0.28 | C > V | Viral Titer Therapeutic (CA09 [1]): Reduced
14 | CCn1nnc2c(N3CCOCC3)nc(-c3ccc(NC(=O)Nc4ccc(C(=O)N5CCN(C)CC5)cc4)cc3)nc21 [PKI-402] | C = V | – | – | – | – | – | – | – | – | C = V | NHBE cell survival / cell death after infection (NHBE cells): no effect; pIC50 (NHBE cells; [16]): 5.52; pIC50 (NHBE cells; [14]): 8.70
15 | CCc1ccc(CCOc2ccc(CC3SC(=O)NC3=O)cc2)nc1 (stereo not drawn) [Pioglitazone] | C > V | 0.22 | 0.8 | 0.66 | 0.47 | -0.1 | 0.49 | 0.73 | 0.23 | – | –
16 | C=C(C)[C@H]1Cc2c(ccc3c2O[C@@H]2COc4cc(OC)c(OC)cc4[C@@H]2C3=O)O1 [Rotenone] | C > V | – | – | – | – | – | – | – | – | C > V | log reduction at 10 pM (CA09 [1]; [4]): 0.09; log reduction at 0.0001 µM (CA09 [1]; [5]): 0.15; log reduction at 0.001 µM (CA09 [1]; [6]): 0.9; log reduction at 0.01 µM (CA09 [1]; [7]): 0.04; log reduction at 0.1 µM (CA09 [1]; [8]): 0.07; log reduction at 1 µM (CA09 [1]; [9]): 0.5; log reduction at 10 µM (CA09 [1]; [10]): 1.14; log reduction at 100 µM (CA09 [1]; [11]): -0.05
17 | CCC(C)(C)C(=O)O[C@H]1C[C@@H](C)C=C2C=C[C@H](C)[C@H](CC[C@@H]3C[C@@H](O)CC(=O)O3)[C@H]21 [SIMVASTATIN] | – | – | – | – | – | – | – | – | – | – | pIC50 (NHBE cells; Homo sapiens, NHBE, 72 h, […], therapeutic schedule, dose response 4 nM to 10 μM, […], read-out: IC50, Therapeutic Treatment, Control): 8.30
18 | CCCCCCCCCCCCCCOc1ccc(C(=O)O)o1 [TOFA] | – | – | – | – | – | – | – | – | – | – | pIC50 (NHBE cells; […], prophylactic schedule, dose response 4 nM to 10 μM, […], read-out: IC50, Prophylactic Treatment, Control): 5.40
19 | Cn1cncc1[C@@](N)(c1ccc(Cl)cc1)c1ccc2c(c1)c(-c1cccc(Cl)c1)cc(=O)n2C [Tipifarnib] | – | 0.02 | 0.73 | 1.04 | 0.6 | -0.16 | 1.04 | 1.4 | 0 | – | pIC50 (NHBE cells; [15]): 7.92; pIC50 (NHBE cells; [13]): 7.89; pIC50 (NHBE cells; Homo sapiens, NHBE, read-out: IC50, Therapeutic Treatment, Viral Infected): 7.48
20 | COc1c(O)cc2oc3cc(O)c(CC=C(C)C)c(O)c3c(=O)c2c1CC=C(C)C [α-Mangostin] | C > V | – | – | – | – | – | – | – | – | C > V | NHBE cell survival / cell death after infection (NHBE cells): differential effects; NHBE cell survival / cell death after infection (NHBE cells; listed as α-mangostin): differentially affected; viral titers in NHBE cells (validated drug hits) (CA09 [1]): consistent reduction; log reduction at 10 pM (CA09 [1]; Prophylactic Drug Treatment, Drug Dose 10 pM, […]): 0.74; log reduction at 0.0001 µM (CA09 [1]; Prophylactic Drug Treatment, Drug Dose 100 pM, […]): 0.69; log reduction at 0.001 µM (CA09 [1]; Prophylactic Drug Treatment, Drug Dose 1 nM, […]): 0.54; log reduction at 0.01 µM (CA09 [1]; Prophylactic Drug Treatment, Drug Dose 10 nM, […]): 0.65; log reduction at 0.1 µM (CA09 [1]; Prophylactic Drug Treatment, Drug Dose 100 nM, […]): 0.84; log reduction at 1 µM (CA09 [1]; Prophylactic Drug Treatment, Drug Dose 1 μM, […]): 0.71; log reduction at 10 µM (CA09 [1]; Prophylactic Drug Treatment, Drug Dose 10 μM, […]): 1.2; log reduction at 100 µM (CA09 [1]; Prophylactic Drug Treatment, Drug Dose 100 μM, […]): 0.85; Viral Titer Prophylactic (CA09 [1]; […], prophylactic treatment): Reduced; viral titers in NHBE cells (validated drug hits) (CA09 [1]; listed as α-mangostin): consistently reduced; weight loss (CA09 [3]): little effect; survival (CA09 [3]): little effect
21 | LB 42708 | – | – | – | – | – | – | – | – | – | – | pIC50 (NHBE cells; [14]): 8.35
22 | OLIGOMYCIN (A SHOWN) | – | – | – | – | – | – | – | – | – | – | pIC50 (NHBE cells; read-out: IC50, Therapeutic Treatment, Control): 6.00; pIC50 (NHBE cells; read-out: IC50, Therapeutic Treatment, Viral Infected): 8.40
23 | PF 429242 | – | – | – | – | – | – | – | – | – | – | pIC50 (NHBE cells; [16]): 5.22
